Experimental data: patent publication US12115373B2, “Methods for reducing the risk of strokes by pharmacotherapy to reduce the number and duration of atrial fibrillations” (Xyra, LLC, priority 2022, dated 2024)

Tests used:
[1] = system: patients with either paroxysmal or persistent AFib; assay: Clinical trial: episodes of long duration AFib (>5 hrs), pacemaker monitoring (Example 4); type: in vivo; conditions: for Episodes of AFib > 5 hrs: Duration, percentage relative to the baseline / Episodes of AFib > 5 hrs: Duration / Episodes of AFib > 5 hrs: Number: 2 week period; for Episodes of AFib > 5 hrs: Duration / Episodes of AFib > 5 hrs: Number: 6 patients
Experimental: This example is a clinical trial evaluation of budiodarone in treating 6 patients with either paroxysmal or persistent AFib who previously evidenced episodes of long duration AFib (greater than 5 hrs). In this example, the patients' heart rhythms were continuously monitored over a twelve-week period with a pacemaker (surgically invasive procedure) and were treated with different doses (2 weeks each) of budiodarone. In addition, during this trial, the patients were under continuous monitoring and constant clinician supervision.
The purpose of this example is to establish whether budiodarone reduces long duration AFib lasting more than 5 hours in a clinical study setting using a pacemaker to evaluate the heart rhythm.
“Number” indicates the number of long duration episodes of AFib having a duration of greater than 5 hours. “Duration” indicates the amount of time during the 2 week period spent in the greater than 5 hour duration AFib, indicated in hours and a percentage relative to the baseline measurement. […] Finally, the 800 mg bid performed best. In all doses, the reduction in episodes of AFib of greater than 5 hours were above 85% and the corresponding reduction in AFib burden was above 90%.

[2] = system: patients with paroxysmal or persistent AFib; assay: Clinical trial evaluation of budiodarone, 6 patients, pacemaker monitoring, two-week dose periods (Example 2); type: in vivo; design: Duration of episodes, Mean / Duration of sinus rhythm, Mean: unit not given here; conditions: for # of AFib episodes, Mean / Duration of episodes, Mean / Duration of sinus rhythm, Mean / Longest AFib Episode - hrs: two-week period, 6 patients
Experimental: This example is a clinical trial evaluation of budiodarone in treating 6 patients with paroxysmal or persistent AFib who previously evidenced episodes of long duration AFib (greater than 24 hours). In this example, the patients' heart rhythm was continuously monitored over a two-week period with a pacemaker, and were treated with different doses of budiodarone. The purpose of this example is to establish whether budiodarone reduces long duration AFib lasting more than 24 hours.

Q: What does the source list for `CC[C@H](C)OC(=O)Cc1oc2ccccc2c1C(=O)c1cc(I)c(OCCN(CC)CC)c(I)c1` [budiodarone, (S)-sec-butyl2-(3-(4-(2-(diethylamino)ethoxy)-3,5-diiodobenzoyl)benzofuran-2-yl)acetate]?
A: Episodes of AFib > 5 hrs: Duration, percentage relative to the baseline ([1]; 200 mg bid): (3.5%); Episodes of AFib > 5 hrs: Duration ([1]; 200 mg bid): 17 h; Episodes of AFib > 5 hrs: Number ([1]; 200 mg bid): 3; Episodes of AFib > 5 hrs: Duration, percentage relative to the baseline ([1]; 400 mg bid): (7.7%); Episodes of AFib > 5 hrs: Duration ([1]; 400 mg bid): 38 h; Episodes of AFib > 5 hrs: Number ([1]; 400 mg bid): 4; Episodes of AFib > 5 hrs: Duration, percentage relative to the baseline ([1]; 600 mg bid): (2.8%); Episodes of AFib > 5 hrs: Duration ([1]; 600 mg bid): 14 h; Episodes of AFib > 5 hrs: Number ([1]; 600 mg bid): 2; Episodes of AFib > 5 hrs: Duration, percentage relative to the baseline ([1]; 800 mg bid): (1%); Episodes of AFib > 5 hrs: Duration ([1]; 800 mg bid): 5 h; Episodes of AFib > 5 hrs: Number ([1]; 800 mg bid): 1; corresponding reduction in AFib burden (episodes > 5 hours) ([1]; in all doses (200-800 mg bid)): above 90%; reduction in episodes of AFib of greater than 5 hours ([1]; in all doses (200-800 mg bid)): above 85%; # of AFib episodes, Mean ([2]; 200 mg bid): 31; Duration of episodes, Mean ([2]; 200 mg bid): 1.7; Duration of sinus rhythm, Mean ([2]; 200 mg bid): 131; Longest AFib Episode - hrs ([2]; 200 mg bid): 7 h; # of AFib episodes, Mean ([2]; 400 mg bid): 37; Duration of episodes, Mean ([2]; 400 mg bid): 0.6; Duration of sinus rhythm, Mean ([2]; 400 mg bid): 48; Longest AFib Episode - hrs ([2]; 400 mg bid): 13 h; # of AFib episodes, Mean ([2]; 600 mg bid): 42; Duration of episodes, Mean ([2]; 600 mg bid): 0.1; Duration of sinus rhythm, Mean ([2]; 600 mg bid): 103; Longest AFib Episode - hrs ([2]; 600 mg bid): 7 h; # of AFib episodes, Mean ([2]; 800 mg bid): 24; Duration of episodes, Mean ([2]; 800 mg bid): 0.5; Duration of sinus rhythm, Mean ([2]; 800 mg bid): 42; Longest AFib Episode - hrs ([2]; 800 mg bid): 5 h; episodes of long duration AFib lasting more than 24 hours eliminated as compared to Baseline ([2]; all dose levels (200-800 mg bid)): over 70%; reduction in AFib burden (number of episodes over a 2-week period times the average duration) ([2]; vs baseline, dose levels 200-800 mg bid): more than 64%
